Experimental data from patent publication US20160367515A1, “Improved delivery of poorly water soluble drugs with aphafetoprotein stabilized with metal ions” (Oy Safemed Ltd., priority 2013, published 2016).

How the values were obtained:
[1] = tested on: normal CBA mice splenocytes; experiment: Unspecific toxicity against normal splenocytes, trypan blue staining; conditions: 48 h, standalone
Procedure: Zn-rhAFP was prepared in a molecular ratio Zn:rhAFP=4:1. Viable cells were visualized by trypan blue staining. The data are expressed as percentage of viable cells in experimental cell cultures relative to untreated control. Mean of three independent experiments is shown.
Viable cells were visualized by trypan blue staining.

[2] = tested on: breast cancer cells MCF-7; experiment: Microscopic evaluation (DAPI, cell count by ImageJ) of viability and apoptosis of MCF-7 cells; assay type: cell-based, human; conditions: MCF-7, 48 h
Procedure: Concentrations of the compounds were: rhAFP: 3.0 μM, Ptx: 10 μM. Incubation time was 48 h. Patterns on the top (A): magnification ×100; bottom (B): magnification ×400. Cell nuclei were stained with DAPI and visualized with a fluorescent microscope Axioplan, Zeiss equipped with corresponding color filter kits. Apoptotic nuclei at s panel B are shown by arrows. […] Total number of cells in the control wells was taken as 100%. The average data for five wells±mean square deviation are shown.
rhAFP/Ptx equimolar complex was also tested for its growth suppressive activity against tumor cells in vitro. […] Apoptotic cells with condensed chromatin due to rhAFP/Ptx treatments are shown at FIG. 3B with arrows.
MCF-7 cells were seeded onto the microscopic plates Lab-Tek™ Chamber Slides (Thermo Fisher Scientific-Nunc, Germany) for 48 h to reach of 80% confluence and thereafter were subjected to 48-h treatments with Ptx dissolved in DMSO (10 nM), Zn-rhAFP (1.4 μM), or their combination Zn-rhAFP/Ptx (1.4 μM/10 nM). Similarly, the tests had been performed with non-glycosylated rhAFPo species. Thereafter the cells were fixed with 100% ice-cold acetone and stained with DAPI (Molecular probes, USA). Control cells were incubated without additions. […] The quantity of the cells in the various experimental wells in the selected fields of view was assessed by using ImageJ software. […]

## CC(=O)O[C@H]1C(=O)[C@@]2(C)[C@H]([C@H](OC(=O)c3ccccc3)[C@]3(O)C[C@H](OC(=O)[C@H](O)[C@@H](NC(=O)c4ccccc4)c4ccccc4)C(C)=C1C3(C)C)[C@]1(OC(C)=O)CO[C@@H]1C[C@@H]2O [Ptx, paclitaxel]
[1]
  cytotoxic effect against normal splenocytes: strong dose-dependent growth suppression
[2]; FIG. 3: rhAFP 3.0 μM, Ptx 10 μM
  viable cell count: 54 % of control
[2]; Ptx 10 nM, Zn-rhAFP 1.4 μM
  cell death: 55%
